Assay results taken from ChEMBL document CHEMBL5614428, “Synthesis and antibacterial activities of heterocyclic ring-fused 20(S)-protopanaxadiol derivatives” (Bioorg Med Chem, 2024).
Values after ≈ are worked out from the molar mass of the structure shown.

Legend:
Format in all cases: functional
Staphylococcus aureus [1] = assay: Antibacterial activity against methicillin-resistant Staphylococcus aureus USA300 assessed as inhibition of bacterial growth incubated for 18 hrs by two fold serial dilution assay
Staphylococcus aureus [2] = assay: Antibacterial activity against Staphylococcus aureus Newman assessed as inhibition of bacterial growth incubated for 18 hrs by two fold serial dilution assay
Staphylococcus aureus [3] = assay: Antibacterial activity against methicillin-resistant Staphylococcus aureus NRS-1 assessed as inhibition of bacterial growth incubated for 18 hrs by two fold serial dilution assay
Staphylococcus aureus [4] = assay: Antibacterial activity against methicillin-resistant Staphylococcus aureus NRS-70 assessed as inhibition of bacterial growth incubated for 18 hrs by two fold serial dilution assay
Staphylococcus aureus [5] = assay: Antibacterial activity against methicillin-resistant Staphylococcus aureus NRS-108 assessed as inhibition of bacterial growth incubated for 18 hrs by two fold serial dilution assay
Staphylococcus aureus [6] = assay: Antibacterial activity against methicillin-resistant Staphylococcus aureus XJ036 assessed as inhibition of bacterial growth incubated for 18 hrs by two fold serial dilution assay
Staphylococcus aureus [7] = assay: Antibacterial activity against methicillin-resistant Staphylococcus aureus NRS-100 assessed as inhibition of bacterial growth incubated for 18 hrs by two fold serial dilution assay
Staphylococcus aureus [8] = assay: Antibacterial activity against methicillin-resistant Staphylococcus aureus NRS-271 assessed as inhibition of bacterial growth incubated for 18 hrs by two fold serial dilution assay
Staphylococcus aureus [9] = assay: Antibacterial activity against methicillin-resistant Staphylococcus aureus XJ017 assessed as inhibition of bacterial growth incubated for 18 hrs by two fold serial dilution assay

Row | Structure (SMILES) | MIC (Staphylococcus aureus [1]) | MIC (Staphylococcus aureus [2]) | MIC (Staphylococcus aureus [3]) | MIC (Staphylococcus aureus [4]) | MIC (Staphylococcus aureus [5]) | MIC (Staphylococcus aureus [6]) | MIC (Staphylococcus aureus [7]) | MIC (Staphylococcus aureus [8]) | MIC (Staphylococcus aureus [9])
1 | CC1(C)c2nc3ccccc3nc2C[C@]2(C)[C@H]3C[C@@H](O)[C@@H]4[C@@H]([C@@](C)(O)CCC(=O)Nc5ccc6nccnc6c5)CC[C@@]4(C)[C@]3(C)CC[C@@H]12 | > 64 µg/mL | > 64 µg/mL |  |  |  |  |  |  | 
2 | Cc1nc2c(o1)C(C)(C)[C@@H]1CC[C@]3(C)[C@H](C[C@@H](O)[C@@H]4[C@@H]([C@@](C)(O)CCCO)CC[C@]43C)[C@@]1(C)C2 | > 64 µg/mL | > 64 µg/mL |  |  |  |  |  |  | 
3 | CC1(C)c2nc(N)sc2C[C@]2(C)[C@H]3C[C@@H](O)[C@@H]4[C@@H]([C@@](C)(O)CCCO)CC[C@@]4(C)[C@]3(C)CC[C@@H]12 | > 64 µg/mL | 16 µg/mL (≈ 32.6 µM) |  |  |  |  |  |  | 
4 | CC1(C)c2nc3ccccc3nc2C[C@]2(C)[C@H]3C[C@@H](O)[C@@H]4[C@@H]([C@]5(C)CCC(=O)O5)CC[C@@]4(C)[C@]3(C)CC[C@@H]12 | 8 µg/mL (≈ 15.5 µM) | 4 µg/mL (≈ 7.74 µM) |  |  |  |  |  |  | 
5 | CC1(C)c2nc3ccccc3nc2C[C@]2(C)[C@H]3C[C@@H](O)[C@@H]4[C@@H]([C@@](C)(O)CCC(=O)Nc5ccc(C(F)(F)F)cc5)CC[C@@]4(C)[C@]3(C)CC[C@@H]12 | > 64 µg/mL | > 64 µg/mL |  |  |  |  |  |  | 
6 | CC1(C)c2nc3ccccc3nc2C[C@]2(C)[C@H]3C[C@@H](O)[C@@H]4[C@@H]([C@@](C)(O)CCCO)CC[C@@]4(C)[C@]3(C)CC[C@@H]12 | 8 µg/mL (≈ 15.4 µM) | 4 µg/mL (≈ 7.68 µM) |  |  |  |  |  |  | 
7 | CC1(C)c2c(cnc3cccn23)C[C@]2(C)[C@H]3C[C@@H](O)[C@@H]4[C@@H]([C@@](C)(O)CCCO)CC[C@@]4(C)[C@]3(C)CC[C@@H]12 | > 64 µg/mL | 4 µg/mL (≈ 7.86 µM) |  |  |  |  |  |  | 
8 | CN(C)C(=O)CC[C@](C)(O)[C@H]1CC[C@]2(C)[C@@H]1[C@H](O)C[C@@H]1[C@@]3(C)Cc4nc5ccccc5nc4C(C)(C)[C@@H]3CC[C@]12C | 4 µg/mL (≈ 7.12 µM) | 4 µg/mL (≈ 7.12 µM) | 4 µg/mL (≈ 7.12 µM) | 4 µg/mL (≈ 7.12 µM) | 4 µg/mL (≈ 7.12 µM) | 8 µg/mL (≈ 14.2 µM) | 8 µg/mL (≈ 14.2 µM) | 4 µg/mL (≈ 7.12 µM) | > 64 µg/mL
9 | COc1ccc(NC(=O)CC[C@](C)(O)[C@H]2CC[C@]3(C)[C@@H]2[C@H](O)C[C@@H]2[C@@]4(C)Cc5nc6ccccc6nc5C(C)(C)[C@@H]4CC[C@]23C)cc1 | > 64 µg/mL | > 64 µg/mL |  |  |  |  |  |  | 
10 | CCNC(=O)CC[C@](C)(O)[C@H]1CC[C@]2(C)[C@@H]1[C@H](O)C[C@@H]1[C@@]3(C)Cc4nc5ccccc5nc4C(C)(C)[C@@H]3CC[C@]12C | 4 µg/mL (≈ 7.12 µM) | 4 µg/mL (≈ 7.12 µM) | > 64 µg/mL | 4 µg/mL (≈ 7.12 µM) | 4 µg/mL (≈ 7.12 µM) | 4 µg/mL (≈ 7.12 µM) | 4 µg/mL (≈ 7.12 µM) | 4 µg/mL (≈ 7.12 µM) | 8 µg/mL (≈ 14.2 µM)
11 | CC1(C)c2nc3ccccc3nc2C[C@]2(C)[C@H]3C[C@@H](O)[C@@H]4[C@@H]([C@@](C)(O)CCC(=O)Nc5ncc[nH]5)CC[C@@]4(C)[C@]3(C)CC[C@@H]12 | 2 µg/mL (≈ 3.33 µM) | 2 µg/mL (≈ 3.33 µM) | 8 µg/mL (≈ 13.3 µM) | 1 µg/mL (≈ 1.67 µM) | 2 µg/mL (≈ 3.33 µM) | 4 µg/mL (≈ 6.67 µM) | 8 µg/mL (≈ 13.3 µM) | 2 µg/mL (≈ 3.33 µM) | 2 µg/mL (≈ 3.33 µM)
12 | CC1(C)c2oncc2C[C@]2(C)[C@H]3C[C@@H](O)[C@@H]4[C@@H]([C@@](C)(O)CCCO)CC[C@@]4(C)[C@]3(C)CC[C@@H]12 | > 64 µg/mL | > 64 µg/mL |  |  |  |  |  |  | 
13 | CC1(C)c2nc3ccccc3nc2C[C@]2(C)[C@H]3C[C@@H](O)[C@@H]4[C@@H]([C@@](C)(O)CCC(=O)NC5CCCCC5)CC[C@@]4(C)[C@]3(C)CC[C@@H]12 | > 64 µg/mL | > 64 µg/mL |  |  |  |  |  |  | 
14 | CC1(C)c2nc3ccccc3cc2C[C@]2(C)[C@H]3C[C@@H](O)[C@@H]4[C@@H]([C@@](C)(O)CCCO)CC[C@@]4(C)[C@]3(C)CC[C@@H]12 | > 64 µg/mL | 2 µg/mL (≈ 3.85 µM) |  |  |  |  |  |  | 
15 | CC1(C)c2nc3ccccc3nc2C[C@]2(C)[C@H]3C[C@@H](O)[C@@H]4[C@@H]([C@@](C)(O)CCC(=O)Nc5ccc6ncsc6c5)CC[C@@]4(C)[C@]3(C)CC[C@@H]12 | > 64 µg/mL | > 64 µg/mL |  |  |  |  |  |  | 
16 | CC1(C)c2[nH]c3ccccc3c2C[C@]2(C)[C@H]3C[C@@H](O)[C@@H]4[C@@H]([C@@](C)(O)CCCO)CC[C@@]4(C)[C@]3(C)CC[C@@H]12 | 32 µg/mL (≈ 63 µM) | 4 µg/mL (≈ 7.88 µM) |  |  |  |  |  |  | 

Row | Structure (SMILES) | MIC (Staphylococcus aureus [1]) | MIC (Staphylococcus aureus [2]) | MIC (Staphylococcus aureus [3]) | MIC (Staphylococcus aureus [4]) | MIC (Staphylococcus aureus [5]) | MIC (Staphylococcus aureus [6]) | MIC (Staphylococcus aureus [7]) | MIC (Staphylococcus aureus [8]) | MIC (Staphylococcus aureus [9])
17 | CC1(C)c2nc3ccccc3nc2C[C@]2(C)[C@H]3C[C@@H](O)[C@@H]4[C@@H]([C@@](C)(O)CCC(=O)O)CC[C@@]4(C)[C@]3(C)CC[C@@H]12 | 16 µg/mL (≈ 29.9 µM) | 16 µg/mL (≈ 29.9 µM) |  |  |  |  |  |  | 
18 | CCCCNC(=O)CC[C@](C)(O)[C@H]1CC[C@]2(C)[C@@H]1[C@H](O)C[C@@H]1[C@@]3(C)Cc4nc5ccccc5nc4C(C)(C)[C@@H]3CC[C@]12C | > 64 µg/mL | > 64 µg/mL |  |  |  |  |  |  | 
19 | CC1(C)c2nc3ccccc3nc2C[C@]2(C)[C@H]3C[C@@H](O)[C@@H]4[C@@H]([C@@](C)(O)CCC(=O)NC5CCCC5)CC[C@@]4(C)[C@]3(C)CC[C@@H]12 | > 64 µg/mL | > 64 µg/mL |  |  |  |  |  |  | 
20 | COC(=O)CC[C@](C)(O)[C@H]1CC[C@]2(C)[C@@H]1[C@H](O)C[C@@H]1[C@@]3(C)Cc4nc5ccccc5nc4C(C)(C)[C@@H]3CC[C@]12C | > 64 µg/mL | > 64 µg/mL |  |  |  |  |  |  | 
21 | C[C@H]1COc2c(N3CCN(C)CC3)c(F)cc3c(=O)c(C(=O)O)cn1c23 [LEVOFLOXACIN ANHYDROUS] |  |  | 16 µg/mL (≈ 44.3 µM) | 0.125 µg/mL (≈ 0.346 µM) | 0.125 µg/mL (≈ 0.346 µM) | 32 µg/mL (≈ 88.6 µM) | 0.125 µg/mL (≈ 0.346 µM) | 4 µg/mL (≈ 11.1 µM) | 64 µg/mL (≈ 177 µM)
22 | CC1(C)S[C@@H]2[C@H](NC(=O)[C@H](N)c3ccccc3)C(=O)N2[C@H]1C(=O)O [AMPICILLIN] |  |  |  | 8 µg/mL (≈ 22.9 µM) | 2 µg/mL (≈ 5.72 µM) | 8 µg/mL (≈ 22.9 µM) | 0.063 µg/mL (≈ 0.18 µM) | 4 µg/mL (≈ 11.4 µM) | 32 µg/mL (≈ 91.6 µM)
23 | CCCNC(=O)CC[C@](C)(O)[C@H]1CC[C@]2(C)[C@@H]1[C@H](O)C[C@@H]1[C@@]3(C)Cc4nc5ccccc5nc4C(C)(C)[C@@H]3CC[C@]12C | > 64 µg/mL | > 64 µg/mL |  |  |  |  |  |  | 
24 | CC1(C)c2nc3ccccc3nc2C[C@]2(C)[C@H]3C[C@@H](O)[C@@H]4[C@@H]([C@]5(C)CCCO5)CC[C@@]4(C)[C@]3(C)CC[C@@H]12 | > 64 µg/mL | > 64 µg/mL |  |  |  |  |  |  | 
25 | CC1(C)c2nccnc2C[C@]2(C)[C@H]3C[C@@H](O)[C@@H]4[C@@H]([C@@](C)(O)CCCO)CC[C@@]4(C)[C@]3(C)CC[C@@H]12 | > 64 µg/mL | > 64 µg/mL |  |  |  |  |  |  | 
26 | CC1(C)c2nc3ccccc3nc2C[C@]2(C)[C@H]3C[C@@H](O)[C@@H]4[C@@H]([C@@](C)(O)CCC(=O)Nc5cccnc5)CC[C@@]4(C)[C@]3(C)CC[C@@H]12 | 4 µg/mL (≈ 6.55 µM) | 2 µg/mL (≈ 3.27 µM) | > 64 µg/mL | 8 µg/mL (≈ 13.1 µM) | 8 µg/mL (≈ 13.1 µM) | 4 µg/mL (≈ 6.55 µM) | 8 µg/mL (≈ 13.1 µM) | 16 µg/mL (≈ 26.2 µM) | 16 µg/mL (≈ 26.2 µM)
27 | CC(C)=CCC[C@](C)(O)[C@H]1CC[C@]2(C)[C@@H]1[C@H](O)C[C@@H]1[C@@]3(C)Cc4nc5ccccc5nc4C(C)(C)[C@@H]3CC[C@]12C | > 64 µg/mL | > 64 µg/mL |  |  |  |  |  |  | 
28 | CC1(C)c2nc(N)ncc2C[C@]2(C)[C@H]3C[C@@H](O)[C@@H]4[C@@H]([C@@](C)(O)CCCO)CC[C@@]4(C)[C@]3(C)CC[C@@H]12 | 32 µg/mL (≈ 65.9 µM) | 16 µg/mL (≈ 32.9 µM) |  |  |  |  |  |  | 
29 | CC1(C)c2nc3ccccc3nc2C[C@]2(C)[C@H]3C[C@@H](O)[C@@H]4[C@@H]([C@@](C)(O)CCC(=O)Nc5ccccc5)CC[C@@]4(C)[C@]3(C)CC[C@@H]12 | > 64 µg/mL | > 64 µg/mL |  |  |  |  |  |  | 
30 | CNC(=O)CC[C@](C)(O)[C@H]1CC[C@]2(C)[C@@H]1[C@H](O)C[C@@H]1[C@@]3(C)Cc4nc5ccccc5nc4C(C)(C)[C@@H]3CC[C@]12C | 4 µg/mL (≈ 7.3 µM) | 4 µg/mL (≈ 7.3 µM) | 4 µg/mL (≈ 7.3 µM) | 4 µg/mL (≈ 7.3 µM) | 4 µg/mL (≈ 7.3 µM) | 8 µg/mL (≈ 14.6 µM) | 8 µg/mL (≈ 14.6 µM) | 8 µg/mL (≈ 14.6 µM) | 16 µg/mL (≈ 29.2 µM)
31 | CC1(C)c2ncncc2C[C@]2(C)[C@H]3C[C@@H](O)[C@@H]4[C@@H]([C@@](C)(O)CCCO)CC[C@@]4(C)[C@]3(C)CC[C@@H]12 | > 64 µg/mL | > 64 µg/mL |  |  |  |  |  |  | 
